Patent publication US20260209218A1, “3-PHENYLQUINAZOLINONES AS NOVEL ANTI-CANCER THERAPY” (HELMHOLTZ ZENTRUM MÜNCHEN - DEUTSCHES FORSCHUNGSZENTRUM FÜR …, priority 2022, published 2026)
Blank lines part the entries; values can stand above or below the compound they belong to.

What was measured:
[1] = target: T1, hFSP1 (Homo sapiens, UniProt Q9BRQ8); test: Dose-response of screening hits, cell survival by Aquabluer in hFSP1 GPX4 KO cells; type: cell-based; settings: FSP1 overexpressing cells lacking GPX4
T1 construct: expressed in transfected cells; host or cells: Gpx4 KO isogenic fibroblasts (Pfa1, mouse) overexpressing hFSP1
T1 sequence (Q9BRQ8 1-373): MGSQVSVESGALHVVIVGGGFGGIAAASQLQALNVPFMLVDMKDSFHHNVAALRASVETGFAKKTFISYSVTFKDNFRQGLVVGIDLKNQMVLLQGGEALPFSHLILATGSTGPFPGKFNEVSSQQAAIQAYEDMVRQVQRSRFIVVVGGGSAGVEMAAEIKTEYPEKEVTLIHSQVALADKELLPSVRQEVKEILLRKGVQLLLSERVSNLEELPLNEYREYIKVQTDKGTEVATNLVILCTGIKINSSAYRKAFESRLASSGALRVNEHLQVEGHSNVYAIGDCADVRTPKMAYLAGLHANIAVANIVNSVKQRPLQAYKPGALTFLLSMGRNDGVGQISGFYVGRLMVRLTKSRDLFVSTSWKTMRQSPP
Experimental: To identify new small molecule inhibitors that induce ferroptosis in FSP1 overexpressing cells lacking GPX4, hFSP1 GPX4 KO as well as FSP1 GPX4 wild type (WT) isogenic fibroblasts were screened using a subtractive high throughput screening (HTS) approach. As such, both cell lines were plated in parallel and screened against HMGU libraries at a fixed concentration of 10 μM. Cell survival was evaluated using the LIVE/DEAD assay Aquabluer. The percentage (%) of viable cells was determined for both wild type (WT) and knockout (KO) cell lines. Hits were considered as compounds that induce ferroptosis in KO but not in WT cells. Subsequently, positive hits were assayed in a dose-response manner to establish EC50 values of respective compounds (see Table 2).

[2] = test system: Pfa1 Gpx4^KO cells overexpressing FSP1; test: Cell viability assay (AquaBluer), ferroptosis induction; type: cell-based; settings: FIG. 1A; rescued by liproxstatin-1
Experimental: (§1) Cells were seeded on 96-well plates and cultured overnight. On the next day, the medium was changed to medium containing following compounds: RSL3, ML210, erastin, FIN56, FINO2, BSO, iFSP1, icFSP1, Lip-1, DFO, Fer-1, zVAD, Nec-1s, MCC950, olaparib, STS, TNFa, Smac mimic or nigericin at the indicated concentrations. For TAM and Dox treatment, cells were seeded with compounds at the same time. Cell viability was determined 1 h (for nigericin), 24-48 h (for RSL3, ML210, erastin, FIN56, FINO2, iFSP1, icFSP1, STS, TNFa, Smac mimic, and zVAD) or 72 h (for BSO, icFSP1, TAM, and Dox) after the treatment using AquaBluer (MultiTarget Pharmaceuticals, Cat #6015) as an indicator of viable cells according to the manufacturer's protocols. For apoptosis induction, HT-1080 cells were incubated with different concentrations of STS for 24 h. For necroptosis induction, HT-29 cells were incubated with different concentrations of TNFa with Smac mimic (400 nM), and zVAD (30 μM) for 24 h. […] As readout fluorescence was measured at Ex/Em=540/590 nm using a SpectraMax M5 microplate reader with SoftMax Pro v7 (Molecular devices) after 4 hours of incubation in normal cell culture conditions. The relative cell viability (%) was calculated as follows: (fluorescence (FL) of samples−background)/(FL of appropriate control samples−background)×100.

[3] = test system: HT-1080 wild type cells; test: as above; type: cell-based, human; settings: FIG. 1B; rescued by liproxstatin-1
Experimental: as §1

[4] = Microsomal stability, mouse liver microsomes; type: in vitro ADME; settings: Balb/c, pH 7.4, 0.42 mg microsomal protein per ml, 37° C., five time points over 40 minutes
Experimental: (§2) The objective of this study was to determine metabolic stability of 4 test articles and reference compounds in human and mouse liver microsomes at five time points over 40 minutes using HPLC-MS. Metabolic stability is defined as the percentage of parent compound lost over time in the presence of a metabolically active test system.
(§3) Microsomal incubations were carried out in 96-well plates in 5 aliquots of 30 μL each (one for each time point). Liver microsomal incubation medium comprised of phosphate buffer (100 mM, pH 7.4), MgCl2 (3.3 mM), NADPH (3 mM), glucose-6-phosphate (5.3 mM), glucose-6-phosphate dehydrogenase (0.67 units/ml) with 0.42 mg of liver microsomal protein per ml. In the control reactions, the NADPH-cofactor system was substituted with phosphate buffer. Test compounds (2 μM, final solvent concentration 1.6%) were incubated with microsomes at 37° C., shaking at 100 rpm. Five time points over 40 minutes were analyzed. The reactions were stopped by adding 5 volumes of acetonitrile with internal standard to incubation aliquots, followed by protein sedimentation by centrifuging at 5500 rpm for 5 minutes. Each reaction was performed in duplicates. Supernatants were analyzed using the HPLC system coupled with a tandem mass spectrometer.
(§4) The elimination constant (kel), half-life (t1,2), and intrinsic clearance (Clint) were determined in a plot of In(AUC) versus time, using linear regression analysis:^1

[5] = Pharmacokinetics after a single intraperitoneal dose, plasma by LC-MS/MS; type: in vivo, male Balb/cAnN mice; settings: mouse, IP, 10 mg/kg
Experimental: The purpose of this study was to determine the pharmacokinetic characteristics of compound 13 in male Balb/cAnN mice following intraperitoneal (IP) administration. Levels of the test compound were determined by LC-MS/MS in the blood plasma samples over time after a single dose.
Study design, animal selection, handling and treatment were all in accordance with the Enamine PK study protocols and Institutional Animal Care and Use Guidelines (BACUC approval number #HC-PK-10112023). Animal treatment and samples preparation were conducted by the Animal Laboratory personnel at Enamine/Bienta. Male Balb/cAnN mice (10 weeks old, body weight ranged from 19.6 g to 23.3 g and average body weight across all groups 21.0 g, SD=0.9 g) were used in this study. The animals were randomly assigned to the treatment groups before the pharmacokinetic study; all animals were fasted for 4 h before dosing. Six sampling time points (5, 15, 30, 60, 120, and 360 min) were set for this pharmacokinetic study. Each of the time point treatment group included 4 animals. There was also a control group of one vehicle-dosed animal. Dosing was done according to the treatment Schedules outlined in Table 5. Mice were injected IP with 2,2,2-tribromoethanol at the dose of 150 mg/kg prior to drawing the blood. Blood collection was performed from the orbital sinus in microtainers containing K3EDTA. Animals were sacrificed by cervical dislocation after the blood samples collection. Blood samples were centrifuged for 10 min at 3000 rpm. All samples were immediately processed, flash-frozen and stored at −70° C. until subsequent analysis.
Plasma samples (40 μl) were mixed with 200 μl of IS(90) solution. After mixing by pipetting and centrifuging for 4 min at 6000 rpm, 0.25 μl of each supernatant was injected into LC-MS/MS system.
Analyses of plasma samples were conducted by the Bioanalytical Laboratory personnel at Enamine/Bienta. The concentrations of 13 in samples were determined using high performance liquid chromatography/tandem mass spectrometry (HPLC-MS/MS). Shimadzu HPLC system comprised 2 isocratic pumps LC-10ADvp, an autosampler SIL-20AC, a sub-controller FCV-14AH and a degasser DGU-14A. Mass spectrometric analysis was performed using an API 3000 (triple-quadrupole) instrument from AB Sciex (Canada) with an electro-spray (ESI) interface. The data acquisition and system control were performed using Analyst 1.6.3 software from AB Sciex.
The concentrations of the test compound below the lower limit of quantitation (LLOQ=100 ng/ml) were designated as zero. The pharmacokinetic data analysis was performed using noncompartmental, bolus injection or extravascular input analysis models in WinNonlin 5.2 (PharSight). Data below LLOQ were presented as missing to improve the validity of T½ calculations.

[6] = Microsomal stability, human liver microsomes; type: in vitro ADME; settings: pH 7.4, 0.42 mg microsomal protein per ml, 37° C., five time points over 40 minutes
Experimental: as §2, §3, §4

[7] = test system: H460 GPX4 KO cells (a human lung cancer cell line); test: Xenograft subcutaneous tumor model, H460; type: in vivo, Athymic Nude mice; settings: FIG. 11C; 50 mg/kg i.p. twice per day from day 8
Experimental: For the xenograft subcutaneous tumor experiments, GPX4^KO H460 cells (5×10^6 cells in 100 μL PBS) were injected subcutaneously into the right flanks of 6-week-old female athymic nude mice. After tumors reached a size of approximately 100 mm^3, mice were randomized and treated with vehicle or icFSP1 (50 mg/kg, Intonation) by i.p. injections twice per day.
(§5) icFSP1 was dissolved in 45% PEG E 300 (Sigma, Cat #91462-1 KG) and 55% PBS (Gibco, Cat #14190094). Tumors were measured by caliper every day and tumor volume was calculated by the following formula: Tumor volume=length×width^2×0.52. When tumor sizes were either larger than 1000 mm^3 at measurement or tumors became necrotic, these tumors were considered to be human endpoints. When tumors became human endpoints, the experiment was stopped at that point and no further experiments were conducted.

[8] = test system: WT hFSP1 or its mutants S187C, L217R and Q319K; test: Saturation transfer difference (STD) NMR; type: binding; settings: FIG. 9; 5 μM recombinant human FSP1, 100-fold molar excess of compound, 10° C.
Experimental: Saturation transfer difference (STD) experiments were performed at Bruker Avance III HD spectrometer at 600 MHz ^1H frequency using a H/N/C triple resonance cryogenic probe. Spectra were recorded at 10° C. with 5 μM recombinant human FSP1 (mutant) and 100-fold molar excess of icFSP1 in phosphate-buffer saline with additional 150 mM NaCl, 1% (v/v) DMSO-d6 and 10% (v/v) D2O for deuterium-lock. Saturation time was 2.5 sec and on- and off-frequencies were 0.68 and −17 ppm, respectively. NMR spectra were processed using Topspin 4.0.6 (Bruker).

[9] = test system: Gpx4 KO/Fsp1KO double mutant murine melanoma cells (B16F10) reconstituted with human FSP1; test: Syngeneic subcutaneous tumor model; type: in vivo, C57BL6/J mice
Experimental: All mice were obtained from Charles River. For the syngeneic subcutaneous tumor experiments, Gpx4^KO/Fsp1^KO 1B16F10 cells stably overexpressing hFSP1-HA (1×10^6 cells in 100 μL PBS) were injected subcutaneously into the right flank of 7-week-old female C57BL6/J mice. After tumors reached a size of approximately 25-50 mm^3, mice were randomized and treated with vehicle or icFSP1 (50 mg/kg, Intonation) by i.p. injections twice per day for 4-5 days. For generating tumor samples for staining, Gpx4^KO/Fsp1^KO 1B16F10 cells stably expressing hFSP1-WT-HA or hFSP1-Q319K-HA (1×10^6 cells in 100 μL PBS) were injected subcutaneously into the right flank of 7-week-old female C57BL6/J mice. After tumors reached a size of approximately 50-150 mm^3, mice were treated with vehicle or icFSP1 (50 mg/kg, Intonation) by i.p. injections twice per day for 3 days.
as §5

[10] = test system: GPX4 KO human melanoma cells (A375); test: Xenograft subcutaneous tumor model, A375; type: in vivo, nude mice; settings: FIG. 3B; treatment from day 3 post implantation, 50 mg/kg i.p.
Experimental: For the xenograft subcutaneous tumor experiments, GPX4^KO A375 cells (5×10^6 cells in 100 μL PBS) were injected subcutaneously into the right flank of 7-week-old female athymic nude mice. After tumors reached a size of approximately 25-100 mm^3, mice were randomized and treated with vehicle or icFSP1 (50 mg/kg, Intonation) by i.p. injections twice per day for the first 4 days and afterward once daily.
as §5

microsomal CLint at 2 μM [4]: 15 µL/min/mg
microsomal CLint at 2 μM [6]: 4 µL/min/mg
Structure (SMILES): Cc1nc2cc(F)c(F)cc2c(=O)n1-c1ccc(NC(=O)Cc2ccccc2)cc1 [Compound 82]
EC50 [1]: < 1 µM

binding by STD spectra [8]: show binding of icFSP1
Structure (SMILES): COc1cc(CC(=O)Nc2ccc(-n3c(C)nc4ccccc4c3=O)cc2)cc(OC)c1OC [icFSP1]
tumor growth [7]: inhibits tumor growth in vivo
tumor growth (tumor volume, tumor weight) ([9]; FIG. 3A, treatment from day 6 post implantation, 50 mg/kg i.p. twice per day): inhibited tumor growth in both human and mouse tumors significantly
tumor growth, hFSP1 WT versus FSP1-Q319K expressing cells ([9]; FIG. 10E, 50 mg/kg i.p. twice per day from day 6): inhibits tumor growth of hFSP1 WT but not of FSP1-Q319K expressing cells
tumor growth [10]: inhibited tumor growth in both human and mouse tumors significantly

More lines, now with the values behind:

Structure (SMILES): COc1cc(CC(=O)Nc2ccc(-n3c(C)nc4ccccc4c3=O)cc2)cc(OC)c1OC [Compound 1]
EC50 [1]: < 1 µM
ferroptosis induction (cell death, AquaBluer) [2]: efficiently induces ferroptosis
ferroptosis induction (cell death, AquaBluer) [3]: efficiently induces ferroptosis

Structure (SMILES): Cc1nc2ccccc2c(=O)n1-c1ccc(NC(=O)Cc2ccccc2)cc1 [Compound 13, N-(4-(2-methyl-4-oxoquinazolin-3(4H)-yl)phenyl)-2-phenylacetamide]
microsomal CLint at 2 μM [4]: 6 µL/min/mg
EC50 [1]: > 1 µM
plasma concentration relative to the EC50 value ([5]; based on the total drug concentration): 10 fold
Cmax ([5]; male, Balb/cAnN, plasma): 10200 ng/mL
Tmax ([5]; male, Balb/cAnN, plasma): 0.25 h
AUC(0-t) ([5]; male, Balb/cAnN, plasma, read-out: AUC0→t = 60 min (AUClast) (converted)): 30000 ng·h/mL
AUC(0-inf) ([5]; male, Balb/cAnN, plasma, read-out: AUC0→∞ (AUCINF_obs) (converted)): 33500 ng·h/mL
MRT inf ([5]; male, Balb/cAnN, plasma, read-out: MRT (MRTinf) (converted)): 2.52 h
MRT last ([5]; male, Balb/cAnN, plasma, read-out: MRT (MRTlast) (converted)): 1.78 h
half-life ([5]; male, Balb/cAnN, plasma, read-out: T1/2 (HL_Lambda_z)): 1.9 h
Kel (Lambda_z) ([5]; plasma): 0.00608 min⁻¹
microsomal CLint at 2 μM [6]: 12 µL/min/mg

Structure (SMILES): Cc1nc2cc(F)c(F)cc2c(=O)n1-c1ccc(NC(=O)Cc2ccc(C(F)(F)F)cc2)cc1 [Compound 74]
microsomal CLint at 2 μM [4]: 7 µL/min/mg
EC50 [1]: < 1 µM
microsomal CLint at 2 μM [6]: 7 µL/min/mg
